Reference: BindingDB's records for PubMed 10215699 (Gliatech, 1999)
Several values for one entry are separate records, joined by “and”; a condition that tells them apart may be missing. Identical values can stand only once.

biological target: Histamine H3 receptor (Homo sapiens, UniProt Q9Y5N1)
Sequence (Q9Y5N1 whole entry): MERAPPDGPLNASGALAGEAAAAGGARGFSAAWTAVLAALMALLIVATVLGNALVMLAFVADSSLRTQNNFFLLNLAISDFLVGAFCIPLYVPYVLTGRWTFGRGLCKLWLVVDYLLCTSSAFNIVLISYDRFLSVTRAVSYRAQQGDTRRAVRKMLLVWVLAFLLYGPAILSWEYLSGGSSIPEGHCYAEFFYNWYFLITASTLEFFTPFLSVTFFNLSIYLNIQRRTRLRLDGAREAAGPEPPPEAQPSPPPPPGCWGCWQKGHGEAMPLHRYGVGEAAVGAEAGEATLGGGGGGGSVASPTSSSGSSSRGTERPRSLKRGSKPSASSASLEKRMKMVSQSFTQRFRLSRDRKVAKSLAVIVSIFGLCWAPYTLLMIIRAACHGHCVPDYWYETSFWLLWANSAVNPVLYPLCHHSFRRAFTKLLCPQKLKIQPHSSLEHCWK

Ki [nM]	Compound
3.2	C(=CCCC1CCCCC1)CCc1cnc[nH]1 [GT 2228]

biological target: Hrh3 protein (Rattus norvegicus, UniProt Q5PPG3)
Sequence (Q5PPG3 whole entry): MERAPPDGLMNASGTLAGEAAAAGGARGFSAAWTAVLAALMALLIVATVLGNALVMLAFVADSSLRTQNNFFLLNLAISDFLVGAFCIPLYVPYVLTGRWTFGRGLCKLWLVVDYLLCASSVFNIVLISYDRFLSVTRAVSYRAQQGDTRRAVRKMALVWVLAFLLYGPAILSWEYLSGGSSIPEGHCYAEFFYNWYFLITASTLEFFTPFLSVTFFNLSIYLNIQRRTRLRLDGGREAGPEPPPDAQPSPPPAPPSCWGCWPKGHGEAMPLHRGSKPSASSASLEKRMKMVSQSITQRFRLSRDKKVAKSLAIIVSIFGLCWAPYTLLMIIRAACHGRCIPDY

Compound	Ki
C(=CCCc1cnc[nH]1)CCc1ccccc1 [GT 2327]	5.5 nM
N[C@@H](CC1CCCCC1)C(=O)NCCc1cnc[nH]1 [GT 2140]	31 nM
N[C@@H](CCc1ccccc1)C(=O)NCCc1c[nH]cn1 [GT 2148]	11 nM
N[C@H](Cc1ccccc1)C(=O)NCCc1c[nH]cn1 [GT 2136]	2810 nM
N[C@@H](Cc1ccccc1)C(=O)NCCc1c[nH]cn1 [GT 2130]	104 nM
N[C@H](C=CCCc1cnc[nH]1)CC1CCCCC1 [GT 2231]	1 nM
CN[C@@H](Cc1ccccc1)C(=O)NCCc1c[nH]cn1 [GT 2142]	1590 nM
O=C(CCCC1CCCCC1)NCCc1cnc[nH]1 [GT 2174]	16 nM
N[C@H](C(=O)NCCc1c[nH]cn1)c1ccccc1 [GT 2146]	630 nM

The remaining lines, values ahead:

Ki	Compound
2.9 nM	C(#CCCC1CCCCC1)CCc1c[nH]cn1 [GT 2260]
0.83 nM	CC(C)(C)CCC#CCCc1c[nH]cn1
1030 nM	C(#Cc1c[nH]cn1)CCCC1CCCCC1 [GT 2288]
75 nM	c1ncc(CCCCCCC2CCCCC2)[nH]1 [GT 2321]
4.2 nM and 15.2 nM	C(=CCCC1CCCCC1)CCc1cnc[nH]1 [GT 2228]
0.95 nM	C(#CCCC1CCCC1)CCc1c[nH]cn1 [GT 2286]
3.4 nM	C(#CCCc1c[nH]cn1)CCCC1CCCCC1 [GT 2287]

biological target: Histamine H2 receptor (Homo sapiens, UniProt P25021)
Sequence (P25021 whole entry): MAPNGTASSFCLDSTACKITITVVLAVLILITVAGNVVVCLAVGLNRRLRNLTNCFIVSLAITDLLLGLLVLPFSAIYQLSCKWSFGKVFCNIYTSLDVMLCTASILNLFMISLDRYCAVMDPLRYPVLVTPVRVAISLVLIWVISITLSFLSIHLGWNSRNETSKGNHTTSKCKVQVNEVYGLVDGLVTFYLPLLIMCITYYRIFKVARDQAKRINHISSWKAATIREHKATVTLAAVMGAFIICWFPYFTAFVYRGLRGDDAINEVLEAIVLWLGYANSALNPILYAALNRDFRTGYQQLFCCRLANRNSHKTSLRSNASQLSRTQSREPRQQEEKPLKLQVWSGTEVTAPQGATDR

Ki [nM]	Compound
4470	C(=CCCC1CCCCC1)CCc1cnc[nH]1 [GT 2228]
